Measured values as given in publication PMC9995496, “A screen for MeCP2-TBL1 interaction inhibitors using a luminescence-based assay” (Scientific Reports, 2023).
Structures can show the parent of a compound that is named as a salt.

These compounds were tested on PRKACA-PRKAR2A interaction (SmBiT-PRKACA / LgBiT-PRKAR2A), protein kinase A. Details: counter-screen for NanoLuc interference, 0.5 h, 20 µM, inhibitor, Inh (PKA).
Set-up: NanoLuc complementation counter-screen in cell extract, PRKACA with PRKAR2A, loss of luminescence, detects NanoLuc interference

| Compound | Inh (PKA) [%] |
| --- | --- |
| Oc1cccc(-c2nc(N3CCOCC3)c3oc4ncccc4c3n2)c1 [UM0127905:03, PI-103] | 4.016 |
| C[S+]([O-])c1ccc(-c2nc(-c3ccc(F)cc3)c(-c3ccncc3)[nH]2)cc1 (stereo not shown) [UM0127917:04, SB 203580] | 16.51 |

Now from value to compound:

| Inh (PKA) [%] | Compound |
| --- | --- |
| 7.481 | C#Cc1cccc(Nc2ncnc3cc(OCCOC)c(OCCOC)cc23)c1 [UM0127944:02, Erlotinib] |
| 5.105 | CNC(=O)c1cc(Oc2ccc(NC(=O)Nc3ccc(Cl)c(C(F)(F)F)c3)cc2)ccn1 [UM0127950:06, Sorafenib] |
| 7.189 | Cc1ccc(NC(=O)c2ccc(CN3CCN(C)CC3)cc2)cc1Nc1nccc(-c2cccnc2)n1 [UM0127952:03, Imatinib (STI571)] |
| 55.05 | CS(=O)(=O)CCNCc1ccc(-c2ccc3ncnc(Nc4ccc(OCc5cccc(F)c5)c(Cl)c4)c3c2)o1 [UM0127953:02, Lapatinib] |
| 11.23 | Cc1ccc(Nc2nccc(N(C)c3ccc4c(C)n(C)nc4c3)n2)cc1S(N)(=O)=O [UM0127957:02, Pazopanib (GW-786034)] |
| 26.41 | Clc1ccc(Nc2nnc(Cc3ccncc3)c3ccccc23)cc1 [UM0127963:02, Vatalanib (PTK787) 2HCl] |
| 29.07 | Clc1ccc(Nc2nnc(Cc3ccncc3)c3ccccc23)cc1 [UM0127963:03, Vatalanib] |
| 12.14 | Cc1cccc(-c2[nH]c(C(C)(C)C)nc2-c2ccc3c(c2)OCO3)n1 [UM0127976:02, SB-505124 hydrochloride] |
| -2.944 | C[C@@H]1CCN(C(=O)CC#N)C[C@@H]1N(C)c1ncnc2[nH]ccc12 [UM0128176:02, Tofacitinib (CP-690550,Tasocitinib)] |
| -0.4434 | CCCC(CCC)C(=O)O [UM0128554:02, Valproic acid] |

Same assay, conditions: counter-screen for NanoLuc interference; 0.5 h, 20 µM; inhibitor

| Compound | Inh (PKA) [%] |
| --- | --- |
| CC[C@H]1OC(=O)[C@H](C)[C@@H](O[C@H]2C[C@@](C)(OC)[C@@H](O)[C@H](C)O2)[C@H](C)[C@@H](O[C@@H]2O[C@H](C)C[C@H](N(C)C)[C@H]2O)[C@](C)(OC)C[C@@H](C)C(=O)[C@H](C)[C@@H](O)[C@]1(C)O [UM0121462:03, Clarithromycin] | 0.9252 |
| COC(=O)N[C@H](C(=O)N1CCC[C@H]1c1ncc(-c2ccc(-c3ccc(-c4cnc([C@@H]5CCCN5C(=O)[C@@H](NC(=O)OC)C(C)C)[nH]4)cc3)cc2)[nH]1)C(C)C [UM0125917:02, Daclatasvir (BMS-790052)] | 3.854 |
| O=c1cc(-c2cccc3c2Sc2ccccc2S3)oc(N2CCOCC2)c1 [UM0127803:03, KU 55933] | 14.3 |
| CC(C)(C)c1cc(C=C(C#N)C#N)cc(Br)c1O [UM0127805:02, AG-1024] | 81.26 |
| O=c1[nH]c2ccccc2n1C1CCN(Cc2ccc(-c3[nH]c4cc5ncnc5cc4nc3-c3ccccc3)cc2)CC1 [UM0127809:02, AKT inhibitor VIII] | 16.69 |
| c1cc(-c2cnn3cc(-c4ccc(OCCN5CCCCC5)cc4)cnc23)ccn1 [UM0127814:02, Dorsomorphin] | 19.2 |
| CN(C)CCCn1cc(C2=C(c3c[nH]c4ccccc34)C(=O)NC2=O)c2ccccc21 [UM0127819:02, GF 109203X] | 67.69 |
| NC(=O)c1ccc(-c2nc(-c3ccc4c(c3)OCCO4)c(-c3ccccn3)[nH]2)cc1 [UM0127827:02, D4476] | 37.52 |
| COc1ccc(CNc2nc(N(CCO)CCO)nc3c2ncn3C(C)C)cc1 [UM0127838:02, CVT-313] | 6.845 |
| Nc1[nH]nc2nnc(-c3c(-c4ccccc4)nn4ccccc34)cc12 [UM0127848:03, FR 180204] | 1.354 |
| COc1ccc(C(=O)Nc2sc3c(c2C(N)=O)CCCC3)cc1OC [UM0127852:02, TCS 359] | 19.65 |
| COc1ccc(COc2ccc(Cc3cnc(N)nc3N)cc2OC)cc1 [UM0127855:02, GW2580] | 7.237 |
| Cn1sc(=O)n(Cc2ccccc2)c1=O [UM0127856:02, TDZD-8] | 41.7 |
| COc1ccc(CNC(=O)Nc2ncc([N+](=O)[O-])s2)cc1 [UM0127858:02, AR-A014418] | 66.01 |
| Nc1cccc(-c2cc3c(Oc4cccc(O)c4)ncnc3[nH]2)c1 [UM0127862:03, TWS119] | 24.46 |
| COc1ccc2c(c1)c(C1=C(c3c[nH]c4ccccc34)C(=O)NC1=O)cn2CCCN(C)C [UM0127865:02, Go 6983] | 49.99 |
| NC(=O)Nc1sc(-c2ccc(F)cc2)cc1C(N)=O [UM0127870:03, TPCA-1] | 19.86 |
| COc1ccc(Cl)cc1NC(=O)Nc1cc(C)nc2ccccc12 [UM0127873:03, PQ 401] | 19.94 |
| O=C(Nc1nc2ccccc2n1CCN1CCOCC1)c1cccc([N+](=O)[O-])c1 [UM0127874:03, IRAK-1-4 Inhibitor I] | 12.44 |
| CC(C)(C)c1nc2c3cc[nH]c(=O)c3c3cc(F)ccc3c2[nH]1 [UM0127875:02, Pyridone 6] | 10.77 |
| COc1cc2ncnc(Nc3ccc(O)c(Br)c3)c2cc1OC [UM0127876:02, WHI-P154] | 9.14 |
| O=c1cc(N2CCOCC2)oc2c(-c3ccccc3)cccc12 [UM0127884:02, LY 294002] | 0.5276 |
| N#C/C(=C(/N)Sc1ccc(N)cc1)c1ccccc1C(F)(F)F [UM0127888:02, SL-327] | 49.94 |
| Cc1[nH]c(/C=C2\C(=O)Nc3ccc(S(=O)(=O)N(C)c4cccc(Cl)c4)cc32)c(C)c1C(=O)N1CCN(C)CC1 [UM0127889:02, SU11274] | 71.51 |
| Nc1ncnc2n[nH]c(Nc3ccc(F)cc3)c12 [UM0127890:04, CGP 57380] | 5.777 |
| Nc1ccc2ncnc(NCCc3ccc(Oc4ccccc4)cc3)c2c1 [UM0127892:02, QNZ (EVP4593)] | 24.11 |
| COc1cccc(-c2cc(=O)c3ccccc3o2)c1N [UM0127895:04, PD98059] | 12.91 |
| c1ccc(-c2[nH]ncc2-c2ccnc3ccccc23)nc1 [UM0127931:02, LY364947] | 7.119 |
| N#C/C(=C\c1ccc(O)c(O)c1)C(=O)NCc1ccccc1 [UM0127932:03, AG-490] | 36.26 |
| CC[C@H](CO)Nc1nc(NCc2ccccc2)c2ncn(C(C)C)c2n1 [UM0127958:02, Roscovitine (Seliciclib,CYC202)] | 10.31 |

Now from value to compound:

| Inh (PKA) [%] | Compound |
| --- | --- |
| 8.299 | COc1cc2ncc(-c3ccccc3)nc2cc1OC [UM0127935:03, Tyrphostin AG 1296] |
| 9.592 | Cc1nc(Nc2ncc(C(=O)Nc3c(C)cccc3Cl)s2)cc(N2CCN(CCO)CC2)n1 [UM0127943:04, Dasatinib (BMS-354825)] |
| 1.892 | Cc1cc(C(=O)NOCCO)c(Nc2ccc(I)cc2F)n(C)c1=O [UM0127946:02, AZD8330] |
| 10.73 | Cc1ccc(-n2nc(C(C)(C)C)cc2NC(=O)Nc2ccc(OCCN3CCOCC3)c3ccccc23)cc1 [UM0127947:02, BIRB 796 (Doramapimod)] |
| 29.68 | CCCS(=O)(=O)Nc1ccc(F)c(C(=O)c2c[nH]c3ncc(Cl)cc23)c1F [UM0127949:04, PLX-4720] |
| 15.54 | Cc1ccc(NC(=O)c2ccc(CN3CCN(C)CC3)cc2)cc1Nc1nc(-c2cccnc2)cs1 [UM0127954:03, Masitinib (AB1010)] |
| 17.26 | Cc1cn(-c2cc(NC(=O)c3ccc(C)c(Nc4nccc(-c5cccnc5)n4)c3)cc(C(F)(F)F)c2)cn1 [UM0127956:03, Nilotinib(AMN-107)] |
| 9.039 | Cc1cc(Nc2cc(N3CCN(C)CC3)nc(Sc3ccc(NC(=O)C4CC4)cc3)n2)n[nH]1 [UM0127961:02, VX-680 (MK-0457,Tozasertib)] |
| 5.275 | COc1cc2/c(=N/c3ccc(Br)cc3F)nc[nH]c2cc1OCC1CCN(C)CC1 [UM0127962:02, Vandetanib (ZD6474)] |
| 6.199 | NC(=O)c1ccc(N(C(N)=O)c2c(F)cccc2F)nc1-c1ccc(F)cc1F [UM0127964:03, VX-702] |
| 24.58 | Cc1ccc(NC(=O)c2cccc(C(C)(C)C#N)c2)cc1Nc1ccc2ncn(C)c(=O)c2c1 [UM0127965:02, AZ 628] |
| 1.396 | O=C(O)c1ccnc(C(=O)O)c1 [UM0128207:03, 2,4-Pyridinedicarboxylic Acid] |
| 34.51 | CCCS(=O)(=O)Nc1ccc(F)c(C(=O)c2c[nH]c3ncc(-c4ccc(Cl)cc4)cc23)c1F [UM0128310:03, Vemurafenib (PLX4032, RG7204)] |
| 3.519 | CC(/C=C/C(=O)NO)=C\[C@@H](C)C(=O)c1ccc(N(C)C)cc1 [UM0128540:02, Trichostatin A (TSA)] |
| 1.175 | O=C1CCc2c(ccc3ccccc23)O1 [UM0128542:02, Splitomicin] |
| 3.14 | O=C(CCCCCN1C(=O)c2cccc3cccc(c23)C1=O)NO [UM0128546:02, Scriptaid] |
| 0.991 | Nc1ncn([C@H]2C[C@H](O)[C@@H](CO)O2)c(=O)n1 [UM0128548:04, Decitabine (NSC127716, 5AZA-CdR)] |
| -0.4631 | O=c1ncccn1[C@@H]1O[C@H](CO)[C@@H](O)[C@H]1O [UM0128549:02, Zebularine] |
| 13.93 | O=C(c1ccc(Cl)cc1Cl)n1nnc2ccccc21 [UM0128552:02, ITSA-1 (ITSA1)] |
| 3.362 | NC(=O)C1CCCc2c1[nH]c1ccc(Cl)cc21 (stereo not shown) [UM0128555:02, EX 527 (SEN0014196)] |
| 25.41 | Oc1ccc(/C=C/c2cc(O)cc(O)c2)cc1 [UM0128556:03, Resveratrol] |
| 17.81 | Oc1cc(O)cc(/C=C/c2ccc(O)c(O)c2)c1 [UM0128559:03, Piceatannol] |
| 5.402 | CCCCCCCCCCCCCCCc1cccc(O)c1C(=O)O [UM0128565:02, Anacardic acid] |
| 3.39 | CC(C)C(=O)SCCCCCCC(=O)Nc1nc(-c2ccccc2)cs1 [UM0128574:02, NCH 51] |
| -1.752 | CC(=O)Nc1ccc(C(=O)Nc2ccccc2N)cc1 [UM0128575:02, CI994 (Tacedinaline)] |
